Experimental data published in ChEMBL document CHEMBL1201862, “PubChem BioAssay data set” (2004).
Calls of active or inactive are those of the source. Cut-off read from the data, not from the text of the source: actives have a measured IC50 and inactives only a lower limit.

Biological target: Envelope glycoprotein gp160 (Human immunodeficiency virus 1, UniProt Q6QLK5)
Assay: inhibitors of HIV fusion peptide binding, primary screen, biochemical, uHTS, fluorescence dequenching (AID 1986)

Chain of Envelope glycoprotein gp160 (Q6QLK5 whole entry, the tested form may be a part): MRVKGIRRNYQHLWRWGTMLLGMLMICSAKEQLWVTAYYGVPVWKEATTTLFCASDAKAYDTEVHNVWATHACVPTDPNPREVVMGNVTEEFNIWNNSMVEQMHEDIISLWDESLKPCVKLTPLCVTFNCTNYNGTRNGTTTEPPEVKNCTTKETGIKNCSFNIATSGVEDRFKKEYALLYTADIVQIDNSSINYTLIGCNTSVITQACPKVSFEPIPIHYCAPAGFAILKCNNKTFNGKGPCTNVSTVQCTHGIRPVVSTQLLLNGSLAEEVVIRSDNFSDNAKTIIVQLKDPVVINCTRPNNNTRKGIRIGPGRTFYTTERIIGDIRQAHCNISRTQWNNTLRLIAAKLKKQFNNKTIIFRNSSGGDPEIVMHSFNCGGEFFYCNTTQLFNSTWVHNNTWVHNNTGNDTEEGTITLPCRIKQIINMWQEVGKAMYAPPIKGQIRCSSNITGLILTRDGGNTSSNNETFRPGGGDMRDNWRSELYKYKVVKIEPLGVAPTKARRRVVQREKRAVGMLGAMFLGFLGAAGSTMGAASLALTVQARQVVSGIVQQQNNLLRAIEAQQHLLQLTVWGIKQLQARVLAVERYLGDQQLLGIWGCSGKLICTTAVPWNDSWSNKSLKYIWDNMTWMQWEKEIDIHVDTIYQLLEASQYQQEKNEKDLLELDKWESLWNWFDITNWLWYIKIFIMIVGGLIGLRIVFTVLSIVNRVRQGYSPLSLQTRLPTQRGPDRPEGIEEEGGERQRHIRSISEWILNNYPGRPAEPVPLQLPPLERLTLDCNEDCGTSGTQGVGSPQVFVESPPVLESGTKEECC

COc1cccc(NS(=O)(=O)c2ccc3c(c2)C2C=CCC2C(c2ccc(C(=O)O)cc2)N3)c1 (stereo not drawn)
IC50: 11.9 µM (active)

COc1ccc(-c2nn(-c3ccccc3)cc2/C=C2/SC(=S)N(CCC(=O)O)C2=O)c(C)c1
IC50: 12.5 µM (active)

CCS(=O)(=O)C1=NN2C(=N)/C(=C\c3ccc(OCCOc4cccc(OC)c4)c(OC)c3)C(=O)N=C2S1
IC50: 9.24 µM (active)
